Values quoted from earlier work in patent US20100087702A1, “Composition and method to modify sperm fertility and female gender ratio in mammals” (priority 2008, published 2010).

Key:
[1] = tested on: Hexose Monophosphate Shunt (HMS); details: Tiffen et al., 1991
[2] = tested on: early-staged mouse embryos; details: Williams, 1986

CCN(CC)c1cc2c(cc1C)Nc1ccc(N)cc1O2 [BCB, 2-methyl-3-diethylamino-7-amino phenoxazine]
increase in oxidation of glucose through the HMS [1]: 15 fold | toxicity of BCB and its metabolites [2]: relatively non-toxic
